The text below walks through data of patent US20250084087A1, “BICYCLIC HETEROCYCLES AS MRGPRX2 ANTAGONISTS” (Incyte Corporation, priority 2023, published 2025).

Where only a bound is given, the exact number is not on record here.

Common to all, as to assay type: cell-based
Assay [1] deals with T1, MRGPRX2 (Homo sapiens, UniProt Q96LB1).
T1 sequence (Q96LB1 1-330): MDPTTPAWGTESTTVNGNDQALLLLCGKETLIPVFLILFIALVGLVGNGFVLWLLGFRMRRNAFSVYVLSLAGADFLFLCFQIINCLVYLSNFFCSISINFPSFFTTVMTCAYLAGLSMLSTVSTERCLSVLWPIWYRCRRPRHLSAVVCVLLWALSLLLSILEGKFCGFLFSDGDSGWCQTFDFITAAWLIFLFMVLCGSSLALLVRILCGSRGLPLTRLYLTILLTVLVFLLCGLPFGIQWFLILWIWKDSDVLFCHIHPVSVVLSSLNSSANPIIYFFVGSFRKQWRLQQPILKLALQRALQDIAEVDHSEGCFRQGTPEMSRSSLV
Nature of the assay: MRGPRX2 β-Arrestin recruitment assay (PathHunter). Also noted: host or cells: CHO-K1 (PathHunter). Conditions: PathHunter CHO-K1 MRGPRX2 β-Arrestin cell line; agonist Cortistatin 14 0.25 μM. In outline: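 CHO-K1 PathHunter cells co-expressing ProLink-tagged MRGPRX2 and enzyme-acceptor-tagged β-arrestin were preincubated with compound 1 h at 37° C., then stimulated with cortistatin-14 (0.25 μM final) for 90 min. Enzyme-complementation luminescence read after 1 h detection; data normalized to DMSO and reference antagonist, IC50 from 3- or 4-parameter Hill fit.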
On the technique in general: Activated receptors often draw arrestin, which recruitment assays turn into a signal.

Assay [2] addresses T1, MRGPRX2. Nature of the assay: MRGPRX2 IP1 HTRF assay. Also noted: host or cells: CHO-K1. As to conditions: CHO-K1 cells stably expressing human MRGPRX2; IP1 accumulation; agonist Cortistatin 14 1 μM. In outline: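 CHO-K1 cells stably expressing human MRGPRX2, preincubated with compound 1 h at 37 °C, then stimulated with 1 μM Cortistatin 14 for 1 h. IP1 measured by HTRF against standard curve, normalized to DMSO and reference antagonist controls; IC50 from 3- or 4-parameter Hill fit.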
(In general: TR-FRET usually uses a lanthanide donor and a delayed reading to cut background.)

Assay [3] addresses T1, MRGPRX2. In words: MRGPRX2 FLIPR calcium mobilization assay. Details: host or cells: CHO-K1. As to conditions: CHO-K1 cells stably expressing human MRGPRX2; Ca2+ release; agonist Cortistatin-14 at EC80. In outline:
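CHO-K1 cells stably expressing the receptor, loaded with Calcium 6 dye, then preincubated 30 min at r.t. with compound in HBSS/20 mM HEPES pH 7.4. Cortistatin-14 at EC80 added; baseline-adjusted maximum RFU read over 110 s. IC50 from 3- or 4-parameter Hill fit.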
In general terms: Calcium assays in cells follow changes in intracellular calcium, usually with a dye or a luminescent sensor.

As a reminder, the IC50 is the midpoint of a concentration-inhibition curve.

Take `NS(=O)(=O)N1CC[C@](CNc2cc(C(F)(F)F)nc3cc(C(F)(F)F)nn23)(c2ccccc2)C1` (stereo in doubt) [Example 3, 3-(((2,5-Bis(trifluoromethyl)pyrazolo[1,5-a]pyrimidin-7-yl)amino)methyl)-3-phenylpyrrolidine-1-sulfonamide]: the IC50 at MRGPRX2 [1] was in the range of 100 to 1000 nM; on MRGPRX2 [2], 0.1 to 100 nM; at MRGPRX2 [3] it was 0.1 to 100 nM.
On to `NC(=O)N1CCC(CNc2cc(C(F)(F)F)nc3cc(C(F)(F)F)nn23)(c2ccccc2)C1` (centres unmarked) [Example 4, 3-(((2,5-Bis(trifluoromethyl)pyrazolo[1,5-a]pyrimidin-7-yl)amino)methyl)-3-phenylpyrrolidine-1-carboxamide], for which the IC50 on MRGPRX2 [1], on MRGPRX2 [2] and at MRGPRX2 [3] was 0.1 to 100 nM each time.
For the molecule `NS(=O)(=O)N1CCC(CNc2cc(C(F)(F)F)nc3cc(C(F)(F)F)nn23)(c2ccccc2)CC1` [Example 6, 4-(((2,5-Bis(trifluoromethyl)pyrazolo[1,5-a]pyrimidin-7-yl)amino)methyl)-4-phenylpiperidine-1-sulfonamide], the IC50 on MRGPRX2 [1], at MRGPRX2 [2] and on MRGPRX2 [3] was 0.1 to 100 nM each time.
`Cc1cc2nc(C(F)(F)F)cc(NCC3(c4ccccc4)CCNCC3)n2n1` [Example 8, 2-Methyl-N-((4-phenylpiperidin-4-yl)methyl)-5-(trifluoromethyl)pyrazolo[1,5-a]pyrimidin-7-amine]: the IC50 on MRGPRX2 [1] was 0.1 to 100 nM; on MRGPRX2 [2], 100 to 1000 nM; at MRGPRX2 [3], 0.1 to 100 nM.
As for `NS(=O)(=O)N1CC(CNc2cc(C(F)(F)F)nc3cc(C(F)(F)F)nn23)(n2cc(F)cn2)C1` [Example 9, 3-(((2,5-Bis(trifluoromethyl)pyrazolo[1,5-a]pyrimidin-7-yl)amino)methyl)-3-(4-fluoro-1H-pyrazol-1-yl)azetidine-1-sulfonamide], the IC50 at MRGPRX2 [1], on MRGPRX2 [2] and on MRGPRX2 [3] was 0.1 to 100 nM in each case.
As to `CNC(=O)N1CCC(CNc2cc(C)nc3nc(C(F)(F)F)nn23)(c2ccccc2)CC1` [Example 18, N-Methyl-4-(((5-methyl-2-(trifluoromethyl)-[1,2,4]triazolo[1,5-a]pyrimidin-7-yl)amino)methyl)-4-phenylpiperidine-1-carboxamide], the IC50 at MRGPRX2 [1], on MRGPRX2 [2] and on MRGPRX2 [3] was 0.1 to 100 nM throughout.
`CC(=O)N1CCC(CNc2cccc3nc(C(F)(F)F)cn23)(c2ccccc2)CC1` [Example 20, 1-(4-Phenyl-4-(((2-(trifluoromethyl)imidazo[1,2-a]pyridin-5-yl)amino)methyl)piperidin-1-yl)ethan-1-one]: the half-maximal inhibitory concentration (IC50) on MRGPRX2 [1], on MRGPRX2 [2] and at MRGPRX2 [3] was 0.1 to 100 nM throughout.
Turning to `CNC(=O)N1CCC(CNc2cccc3nc(C(F)(F)F)cn23)(c2ccccc2)CC1` [Example 21, N-Methyl-4-phenyl-4-(((2-(trifluoromethyl)imidazo[1,2-a]pyridin-5-yl)amino)methyl)piperidine-1-carboxamide], the IC50 at MRGPRX2 [1], at MRGPRX2 [2] and on MRGPRX2 [3] was 0.1 to 100 nM in each case.
Take `NS(=O)(=O)N1CC(CNc2cc(C(F)(F)F)nc3cc(C(F)(F)F)nn23)(c2ccc(F)cc2)C1` [Example 30, 3-(((2,5-Bis(trifluoromethyl)pyrazolo[1,5-a]pyrimidin-7-yl)amino)methyl)-3-(4-fluorophenyl)azetidine-1-sulfonamide]: the concentration for half-maximal inhibition (IC50) on MRGPRX2 [1], on MRGPRX2 [2] and on MRGPRX2 [3] was 0.1 to 100 nM in each case.
Take `NC(=O)N1CC(CNc2cc(C(F)(F)F)nc3cc(C(F)(F)F)nn23)(c2ccc(F)cc2)C1` [Example 31, 3-(((2,5-Bis(trifluoromethyl)pyrazolo[1,5-a]pyrimidin-7-yl)amino)methyl)-3-(4-fluorophenyl)azetidine-1-carboxamide]: the IC50 on MRGPRX2 [1], at MRGPRX2 [2] and at MRGPRX2 [3] was 0.1 to 100 nM each time.
Consider `NS(=O)(=O)N1CC(CNc2cccc3nc(C(F)(F)F)nn23)(c2ccc(F)cc2)C1` [Example 32, 3-(4-Fluorophenyl)-3-(((2-(trifluoromethyl)-[1,2,4]triazolo[1,5-a]pyridin-5-yl)amino)methyl)azetidine-1-sulfonamide], for which the half-inhibitory concentration (IC50) at MRGPRX2 [1], on MRGPRX2 [2] and on MRGPRX2 [3] was 0.1 to 100 nM each time.
Turning to `NC(=O)N1CC(CNc2cccc3nc(C(F)(F)F)nn23)(c2ccc(F)cc2)C1` [Example 33, 3-(4-Fluorophenyl)-3-(((2-(trifluoromethyl)-[1,2,4]triazolo[1,5-a]pyridin-5-yl)amino)methyl)azetidine-1-carboxamide], the half-maximal inhibitory concentration (IC50) at MRGPRX2 [1], on MRGPRX2 [2] and at MRGPRX2 [3] was 0.1 to 100 nM throughout.
As to `Fc1ccc(C2(CNc3cccc4nc(C(F)(F)F)cn34)CCC2)cc1` [Example 36, N-((1-(4-Fluorophenyl)cyclobutyl)methyl)-2-(trifluoromethyl)imidazo[1,2-a]pyridin-5-amine], the IC50 at MRGPRX2 [1], at MRGPRX2 [2] and at MRGPRX2 [3] was 0.1 to 100 nM each time.
As to `FC(F)(F)c1cn2c(NCC3(c4ccncc4)CCC3)cccc2n1` [Example 37, N-((1-(Pyridin-4-yl)cyclobutyl)methyl)-2-(trifluoromethyl)imidazo[1,2-a]pyridin-5-amine], the concentration for half-maximal inhibition (IC50) on MRGPRX2 [1], at MRGPRX2 [2] and on MRGPRX2 [3] was 0.1 to 100 nM throughout.
Take `COc1ccc(C2(CNc3cccc4nc(C(F)(F)F)cn34)CCOCC2)cc1` [Example 39, N-((4-(4-Methoxyphenyl)tetrahydro-2H-pyran-4-yl)methyl)-2-(trifluoromethyl)imidazo[1,2-a]pyridin-5-amine]: the IC50 at MRGPRX2 [1], at MRGPRX2 [2] and on MRGPRX2 [3] was 0.1 to 100 nM each time.
`CN1CCN(C2CC(CNc3cc(C(F)(F)F)nc4cc(Br)nn34)(c3ccccc3)C2)CC1` (centres unmarked) [Example 43, 2-Bromo-N-((3-(4-methylpiperazin-1-yl)-1-phenylcyclobutyl)methyl)-5-(trifluoromethyl)pyrazolo[1,5-a]pyrimidin-7-amine]: the concentration for half-maximal inhibition (IC50) at MRGPRX2 [1], at MRGPRX2 [2] and at MRGPRX2 [3] was 0.1 to 100 nM throughout.
As to `OCCNC1CC(CNc2cc(C(F)(F)F)nc3cc(Br)nn23)(c2ccccc2)C1` (centres unmarked) [Example 44, 2-((3-(((2-Bromo-5-(trifluoromethyl)pyrazolo[1,5-a]pyrimidin-7-yl)amino)methyl)-3-phenylcyclobutyl)amino)ethan-1-ol], the IC50 on MRGPRX2 [1], on MRGPRX2 [2] and on MRGPRX2 [3] was 0.1 to 100 nM each time.
As to `N#Cc1cnc(N2CC(CNc3cc(C(F)(F)F)nc4cc(C(F)(F)F)nn34)(c3ccc(F)cc3)C2)cn1` [Example 45, 5-(3-(((2,5-Bis(trifluoromethyl)pyrazolo[1,5-a]pyrimidin-7-yl)amino)methyl)-3-(4-fluorophenyl)azetidin-1-yl)pyrazine-2-carbonitrile], the half-maximal inhibitory concentration (IC50) at MRGPRX2 [1], at MRGPRX2 [2] and at MRGPRX2 [3] was 0.1 to 100 nM each time.
As to `N#Cc1cc2nc(Cl)cc(NCC3(c4ccccc4)CCNCC3)n2n1` [Example 104, 5-Chloro-7-(((4-phenylpiperidin-4-yl)methyl)amino)pyrazolo[1,5-a]pyrimidine-2-carbonitrile], the IC50 on MRGPRX2 [2] is > 1000 nM; on MRGPRX2 [3] it was 100 to 1000 nM.
